Tested on: HCT116DICER^ex5 cells
Experiment: Cell cycle FACS screen of pools of three siRNAs per gene (G1 after nocodazole, G2/M after aphidicolin)
Type: cell-based, human
Settings: pools of 3 siRNAs/gene at 100 nM final, FACS 66 hours post-transfection, average of two experiments
Text: To identify targets whose modulation influences the cell cycle arrest phenotype observed with miR-192 expression, the 62 candidate genes identified as described in Example 2 and shown in TABLE 3 were silenced individually by transfecting a pool of 3 gene-specific siRNA duplexes per gene (each directed to a different region of the gene) into HCT116DICER^ex5 cells. The siRNA duplex sequences (3 duplexes per gene) used to target each of the 62 genes are shown below in TABLE 5. The siRNA duplex oligonucleotides were obtained from Sigma-Genesys, as described in Linsley, P. S. et al., Mol Cell Biol 27:2240-2252 (2007).
HCT116DICER^ex5 cells were transiently transfected with pools of three different siRNA duplexes per gene at a 100 nM final concentration using Lipofectamine RNAiMax (Invitrogen), according to the manufacturer's instructions. At 48 hours post transfection, cells were left untreated, treated with nocodazole (100 ng/mL, Sigma-Aldrich), or treated with aphidicolin (2 μg/mL, Sigma-Aldrich) for an additional 18 hours before harvesting. The cells transfected with the siRNA pools were then screened by FACS analysis as described in Example 3 for the percentage of cells arrested in G1 or G2/M as compared to the negative siRNA luciferase control.
The siRNA pools tested in this screen were ranked according to the percentage of cells arrested in G1 or G2/M following transfection, as compared with a negative control siRNA targeting luciferase. To avoid being misled by possible RNAi off-target effects, the siRNA pools were deconvoluted to identify genes for which at least 2 different siRNA duplexes from the pool caused the cell cycle arrest phenotype (data not shown).
TABLE 6 summarizes the data obtained 66 hours post-transfection by FACS analysis showing the cell cycle distribution of the HCT116DICER^ex5 cells transfected with siRNA pools of 3 siRNAs/gene. Each pool was analyzed in two separate experiments, and the average percentage of the cells trapped in G1 (following nocodazole treatment), or G2/M (following aphidicolin treatment) are shown in TABLE 6.

## miR-192: Synthetic duplex mimetic of miR-192, guide CUGACCUAUGAAUUGACAGCC (SEQ ID NO:1), passenger SEQ ID NO:7 (sense CUGUCAAUUCAUCGGUCUGAU; listed as RNA, chemistry not given here; listed as Homo sapiens)
Aphidicolin 2 μg/mL 18 h
  % G2 (Avg), Aphidicholin+: 54.9%
Nocodazole 100 ng/mL 18 h
  % G1 (Avg), Nocodazole+: 43.6%

Reference: US20110118337A1, “Method of Using Compositions Comprising MIR-192 and/or MIR-215 for the Treatment of Cancer” (Merck Sharp & Dohme Corp., priority 2008, published 2011)
